# Data from ChEMBL document CHEMBL1126269, “Optimization of the quinoline and substituted benzyl moieties of a series of phenyltetrazole leukotriene D4 receptor antagonists” (J Med Chem, 1992).
# Where “and” joins values, the source holds several entries; their conditions need not be identical. Equal entries are not always repeated.
# Columns and labels:
# [1] = test system: Cysteinyl leukotriene receptor (Cavia porcellus); test: In vitro inhibition of leukotriene D4 induced contractions of isolated guinea pig ileum.
# [2] = molecular target: T1, Cysteinyl leukotriene receptor 1 (Cavia porcellus) (UniProt Q2NNR5); test: Antagonistic activity in vitro against leukotriene-D4 (LTD4) induced guinea pig ileum contraction; assay type: functional, tissue-based
# T1 sequence (whole entry): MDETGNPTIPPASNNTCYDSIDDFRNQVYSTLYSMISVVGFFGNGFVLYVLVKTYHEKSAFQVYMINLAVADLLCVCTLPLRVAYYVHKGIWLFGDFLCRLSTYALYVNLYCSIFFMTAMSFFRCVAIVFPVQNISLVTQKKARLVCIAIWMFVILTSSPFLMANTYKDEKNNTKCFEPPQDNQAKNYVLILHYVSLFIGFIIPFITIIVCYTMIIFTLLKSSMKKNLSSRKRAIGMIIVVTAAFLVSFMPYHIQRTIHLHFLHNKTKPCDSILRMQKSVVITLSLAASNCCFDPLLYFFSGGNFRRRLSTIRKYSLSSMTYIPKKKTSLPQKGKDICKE
SMILES,pKB [1],pKB [2]
O=C(O)c1cc(F)ccc1Cn1nnc(-c2cccc(/C=C/c3ccc4ccc(Cl)cc4n3)c2)n1,9.1,
O=C(O)c1ccccc1Cn1nnc(-c2cccc(/C=C/c3ccc4ccccc4n3)c2)n1,8.5,
O=C(O)c1cccc(Cn2nnc(-c3cccc(/C=C/c4ccc5ccccc5n4)c3)n2)c1,7.1,
COc1cccc(C(=O)O)c1Cn1nnc(-c2cccc(OCc3ccc4ccccc4n3)c2)n1,8.4,
O=C(O)c1ccccc1Cn1nnc(-c2cccc(CSc3ccc4ccccc4n3)c2)n1,7,
O=C(O)c1ccccc1Cn1nnc(-c2cccc(/C=C/c3ccc4ccc(Cl)cc4n3)c2)n1,8.8,
COc1cc(C(=O)O)ccc1Cn1nnc(-c2cccc(/C=C/c3ccc4ccccc4n3)c2)n1,7.4,
O=C(O)c1ccoc1Cn1nnc(-c2cccc(/C=C/c3ccc4ccccc4n3)c2)n1,7.9,

# Continued, values first:
pKB [1],pKB [2],SMILES
8.2,,COc1cc(C(=O)O)ccc1Cn1nnnc1-c1cccc(/C=C/c2ccc3ccccc3n2)c1
8.3,,O=C(O)c1ccccc1Cn1nnc(-c2cccc(OCc3nc4ccccc4s3)c2)n1
,9.1,c1cc(OCc2ccc3ccccc3n2)cc(-c2nnn(Cc3ccccc3-c3nn[nH]n3)n2)c1
7.7,,O=C(O)Cc1ccccc1Cn1nnc(-c2cccc(/C=C/c3ccc4ccccc4n3)c2)n1
8.3 and 8.4,,O=C(O)c1ccccc1Cn1nnc(-c2cccc(OCc3ccc4ccccc4n3)c2)n1
8.7,,O=C(O)c1ccccc1Cn1nnc(-c2cccc(OCc3ccc4ccc(Cl)cc4n3)c2)n1
7.6,,O=C(O)Cc1ccccc1Cn1nnc(-c2cccc(OCc3ccc4ccccc4n3)c2)n1
6.5,,O=C(O)c1ccccc1Cn1nnnc1-c1cccc(OCc2ccc3ccccc3n2)c1
7.9,,O=C(O)c1ccccc1CCn1nnc(-c2cccc(/C=C/c3ccc4ccc(Cl)cc4n3)c2)n1
7.8,,O=C(O)c1sccc1Cn1nnc(-c2cccc(/C=C/c3ccc4ccc(Cl)cc4n3)c2)n1
